Here are results for two compounds from article PMC12395807, “Chemoreceptor family in plant-associated bacteria responds preferentially to the plant signal molecule glycerol 3-phosphate” (Genome Biology, 2025).

For one test, the system named is P. atrosepticum SCRI1043. The test can be described thus: Quantitative capillary chemotaxis assay, wild type. Type of test: cell-based, Pectobacterium atrosepticum. The settings on record: wild type SCRI1043, 1 mM ligand, 30 min. On the procedure:
(§1) Overnight cultures of P. atrosepticum SCRI1043 were grown at 30 °C in minimal medium. At an OD660 of 0.4–0.45, the cultures were washed twice with chemotaxis buffer (50 mM K2HPO4/KH2PO4, 20 μM EDTA, 0.05% (v/v) glycerol, pH 7.0) and diluted to an OD660 of 0.1 in the same buffer. Subsequently, 230 μL of the resulting bacterial suspension was placed into the wells of 96-well plates. One-microliter capillary tubes (P1424, Microcaps; Drummond Scientific) were heat-sealed at one end and filled with either chemotaxis buffer (negative control) or chemotaxis buffer containing PacP ligands at a concentration of 1 mM. The capillaries were immersed in the bacterial suspensions at their open ends. After 30 min at room temperature, the capillaries were removed from the bacterial suspensions, rinsed with sterile water, and the contents were expelled into 1 mL of 40 mM K2HPO4, 15 mM KH2PO4. Serial dilutions were plated onto minimal medium supplemented with 15 mM glucose as the carbon source. The number of colony-forming units was determined after 36 h of incubation at 30 °C. In all the cases, the data were corrected with the number of cells that swam into the buffer-containing capillaries.

Test [1] concerns the target LBD of chemoreceptor R5 (WP_028444678.1). The test can be described thus: ITC binding to R5-LBD. The settings on record: 20 °C, Nb = no binding. Further details: species or system Chitinimonas koreensis. The procedure:
(§2) Plasmids for the overexpression of the different proteins were transformed into E. coli BL21(DE3). The resulting strains were grown under continuous stirring (200 rpm) at 30 °C in 2-L Erlenmeyer flasks containing 500 mL of LB medium supplemented with 50 μg/mL kanamycin. At an OD660 of 0.5, protein expression was induced by the addition of 0.1 mM isopropyl β-D-1-thiogalactopyranoside. Growth was continued at 16 °C overnight prior to cell harvesting by centrifugation at 10,000 × g for 20 min. Cell pellets were resuspended in buffer A (Additional file 2: Table S4) and subsequently broken by French press treatment at 62.5 lb/in^2. After centrifugation at 20,000 × g for 30 min, the supernatants were loaded onto 5-mL HisTrap HP columns (Amersham Biosciences) equilibrated with buffer A, and the proteins were eluted with a linear gradient of buffer B (Additional file 2: Table S4). All proteins contain a hexa-histidine tag at the N-terminal extension (Additional file 2: Table S3) and were purified at 4 °C. The purified proteins were dialyzed overnight into the corresponding analysis buffers (Additional file 2: Table S4) for immediate analysis.
(§3) All experiments were conducted on a VP microcalorimeter (Microcal, MA) at 15 °C for PacP-LBD and at 20 °C for the remaining proteins. Proteins were dialyzed into the analysis buffers specified in Additional file 2: Table S4, placed into the sample cell and titrated with aliquots of ligand solutions (1 to 10 mM) freshly prepared in dialysis buffer. The mean enthalpies measured from the injection of the ligands into the analysis buffer were subtracted from the raw titration data prior to data analysis with the MicroCal version of ORIGIN. The data were fitted with the “One binding site model” of ORIGIN.

Test [2] concerns P. atrosepticum SCRI1043 ΔcheA. In words: Quantitative capillary chemotaxis assay, cheA mutant. Type of test: cell-based, Pectobacterium atrosepticum. Conditions: 1 mM ligand. The procedure:
as §1
Fig. S2) Quantitative capillary chemotaxis assays of different P. atrosepticum SCRI1043 strains to 1 mM Glycerol 3-phosphate (A) and 3-phosphoglycerate (B). […]

The target of test [3] is LBD of chemoreceptor R6 (WP_174062248.1). The test can be described thus: ITC binding to R6-LBD. Further details: species or system Agrobacterium larrymoorei. Conditions: 20 °C, Nb = no binding. On the procedure: as §2, §3
For test [4], the system named is P. atrosepticum SCRI1043 pacP mutant (MpacP). In words: Quantitative capillary chemotaxis assay, pacP mutant. In kind it is cell-based, Pectobacterium atrosepticum. The settings on record: 1 mM ligand.
Description: A mutant defective in ECA_RS12390 was constructed by homologous recombination using a derivative plasmid of the suicide vector pKNG101. Briefly, a 0.5-kb fragment corresponding to the region encoding the LBD of ECA_RS12390 was amplified by the primers specified in Additional file 2: Table S2 and cloned into pGEM®-T. The resulting plasmid pGEM::ECA_RS12390 was digested with XmaI, and the 0.5-kb insert was cloned into the same site at pKNG101 to generate pKNG101::ECA_RS12390. This plasmid was subsequently transformed into P. atrosepticum SRCI1043 via biparental conjugation using E. coli β2163. All the plasmids were verified by PCR and sequencing. The pETb(+) derivatives encoding the LBD of the different receptors analyzed in this study (Table 1) were purchased from GeneScript. Plasmid pBBR-ECA_RS12390 was constructed by amplifying the pacP gene using the primers detailed in Additional file 2: Table S2 and cloning of the PCR product into the NdeI/BamHI sites of pBBR1MCS2_START. The sequences of the proteins analyzed in this study are provided in Additional file 2: Table S3. The ECA_RS12390 nucleotide sequence is available in the published genome of P. atrosepticum SCRI1043 [60].
as §1

Test [5] concerns the target LBD of chemoreceptor R10 (WP_028866120.1). The test can be described thus: ITC binding to R10-LBD. Further details: species or system Psychromonas aquimarina. The settings on record: 20 °C, Nb = no binding. On the procedure:
as §2, §3

Take `O=C(O)[C@@H](O)COP(=O)(O)O` [3-phosphoglycerate]: the entries for the “chemotaxis (capillary assay)” value (in the test with P. atrosepticum SCRI1043; in test [2]; in test [4]) were “significantly greater”, “failed to respond” and “Only glycerol 2-phosphate served as an attractant for the mutant”, respectively. The KD entry in test [1], in test [3] and in test [5] was “Nb” throughout.
Regarding `O=P(O)(O)OCC(O)CO` (stereo not shown) [glycerol 3-phosphate], the “chemotaxis (capillary assay)” value is “significantly greater” with P. atrosepticum SCRI1043, “strongest chemotaxis” with P. atrosepticum SCRI1043 (listed as Glycerol 3-phosphate), “failed to respond” in test [2] and “Only glycerol 2-phosphate served as an attractant for the mutant” in test [4]. The KD entry in test [1], in test [3] and in test [5] was “Nb” in each case.
